We go through 4 molecules from publication PMC7253369, “Cellular and Structural Basis of Synthesis of the Unique Intermediate Dehydro-F420-0 in Mycobacteria” (mSystems, 2020).

Data set [1] addresses T1, FbiA (Mycolicibacterium smegmatis, UniProt A0QTG2).
T1 construct: expressed in M. smegmatis mc^2155 (homologous host); homodimer
T1 sequence (A0QTG2 1-327): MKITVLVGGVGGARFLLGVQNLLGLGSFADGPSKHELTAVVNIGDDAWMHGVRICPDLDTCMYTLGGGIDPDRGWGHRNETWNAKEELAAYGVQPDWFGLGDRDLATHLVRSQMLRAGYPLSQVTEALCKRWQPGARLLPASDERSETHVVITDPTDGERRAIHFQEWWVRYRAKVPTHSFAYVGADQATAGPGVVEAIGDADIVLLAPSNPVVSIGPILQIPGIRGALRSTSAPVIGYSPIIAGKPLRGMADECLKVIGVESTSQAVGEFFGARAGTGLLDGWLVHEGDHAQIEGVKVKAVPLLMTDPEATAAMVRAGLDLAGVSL
In words: X-ray crystal structure, crystal soaking. It is filed as binding. To be noted: pH 8.5, 20% glycerol.

Data set [2] concerns the target T1, FbiA. The data set is described as follows: X-ray crystal structure, crystal soaking; co-purification with LC-MS. The class given is binding. The following applies: pH 8.5, 20% glycerol; no metal seen; active site of Mol. B; carbonyl part poorly resolved.
Data set [3] concerns the molecule itself. In words: SEC-MALS; Superdex S200 Increase 10/300 in 200 mM NaCl, 50 mM Tris pH 7.9; purified FbiA; MALS detection (Wyatt).

On to `Nc1nc2c(ncn2[C@@H]2O[C@H](COP(=O)(O)OP(=O)(O)O)[C@@H](O)[C@H]2O)c(=O)[nH]1` [GDP], for which the “X-ray crystal structure, crystal soaking” value on FbiA [1] (GDP alone and with Fo, active-site Ca2+ in Mol. B, in place of unstable EPPG) is recorded as “FbiA plus GDP, 6UW3; FbiA plus GDP plus Fo, 6UW5”.
For the molecule `C=C(OP(=O)(O)OC[C@@H](O)[C@@H](O)[C@@H](O)Cn1c2nc(=O)[nH]c(=O)c-2cc2ccc(O)cc21)C(=O)O` [DH-F420-0], the “X-ray crystal structure, crystal soaking; co-purification with LC-MS” value at FbiA [2] is “FbiA plus DH-F420-0, 6UW7”.
Regarding `O=c1nc2n(C[C@H](O)[C@H](O)[C@H](O)CO)c3cc(O)ccc3cc-2c(=O)[nH]1` [Fo], the “X-ray crystal structure, crystal soaking” value at FbiA [1] (Fo alone (no metal seen) and with GDP and Ca2+, active site of Mol. B) is reported as “FbiA plus Fo, 6UW1; FbiA plus GDP, 6UW3; FbiA plus GDP plus Fo, 6UW5”.

B1: FbiA from M. smegmatis (enzyme)
chain: T1 sequence (A0QTG2 1-327)
notes: FbiA (phosphotransferase that makes dehydro-F420-0; homologous to CofD) from Mycobacterium smegmatis, gene MSMEG_1830; Copurifies with its product DH-F420-0 and some mature F420 (small molecules); also called MSMEG_1830; Mol. A; source: M. smegmatis mc2155, pMyNT vector, acetamide-induced, purified (Ni2+ agarose, SEC, TEV cleavage); not shown: His6, N-terminal, cleaved
A word on the stoichiometry N: it is a count of units in the complex or per binding partner. B1: in data set [3], the “stoichiometry N” value was 2.
